Data as given in US20250368635A1, “HETEROARYL DERIVATIVE COMPOUND, AND USES THEREOF” (VORONOI, INC., priority 2022, published 2025).

Tested on: Ba/F3 cells expressing EGFR Del19/C797S (EGFR DC)
Assay: Inhibition of proliferation of Ba/F3 cells expressing EGFR Del19/C797S (CellTiter-Glo, 72 h)
Type: cell-based
Conditions: Mus musculus, BaF3, 72 hours treatment
Protocol: The following experiment was performed to evaluate the inhibitory activity of the compounds according to the present invention on the proliferation of Ba/F3 cells expressing EGFR Del19/C797S (EGFR DC) and EGFR L858R/C797S (EGFR LC) mutations.
Ba/F3 cells were cultured using medium (RPMI-1640) containing 10% fetal bovine serum (FBS) and 5 ng/ml IL-3 (R&D Systems). The transduced Ba/F3 cells were cultured by adding 1 μg/ml puromycin (Invitrogen) to the same medium.
24 hours prior to treatment with compounds, 3,000 to 5,000 cells were seeded on a well plate (white clear bottom 96 well plate, Corning). The compounds were diluted in dimethyl sulfoxide (3-fold dilution, total of 12 concentrations) and injected at 1 μl each so that the final concentration was 0.2 nM to 5 μM. After 72 hours post treatment with compounds, living cells were stored at room temperature for 10 minutes using CellTiter-Glo luminescent cell-viability reagent (Promega), and the luminescence intensity thereof was measured using a reader (Synergy Neo, Biotek). Each test was repeated three times. The result values were calculated as a cell growth rate (%) compared to the control group. A graph was created using the GraphPad Prism version 8.3.0 program, and GI50 values were calculated.

Compound	GI50
COc1cc(N2CCOC3(CC3)C2)c(-c2cnn(C)c2)cc1Nc1cc(N2OCC[C@@H]2c2cccc(F)c2F)ncn1 [Example 43, (R)-6-(3-(2,3-difluorophenyl)isoxazolidin-2-yl)-N-(2-methoxy-5-(1-methyl-1H-pyrazol-4-yl)-4-(4-oxa-7-azaspiro[2.5]octan-7-yl)phenyl)pyrimidin-4-amine]	100 to 1000 nM
CN1CCN(C2CCN(c3c(-c4cnn(C)c4)cc(Nc4cc(N5OCC[C@@H]5c5cccc(F)c5F)ncn4)c4c3CCO4)CC2)CC1 [Example 112, (R)-6-(3-(2,3-difluorophenyl)isoxazolidin-2-yl)-N-(5-(1-methyl-1H-pyrazol-4-yl)-4-(4-(4-methylpiperazin-1-yl)piperidin-1-yl)-2,3-dihydrobenzofuran-7-yl)pyrimidin-4-amine]	100 to 1000 nM
COc1cc(N2CCC(C)(OC)CC2)c(-c2cnn(C)c2)cc1Nc1cc(N2OCC[C@@H]2c2cccc(F)c2F)ncn1 [Example 109, (R)-6-(3-(2,3-difluorophenyl)isoxazolidin-2-yl)-N-(2-methoxy-4-(4-methoxy-4-methylpiperidin-1-yl)-5-(1-methyl-1H-pyrazol-4-yl)phenyl)pyrimidin-4-amine]	< 100 nM
COc1cc(N2CCC(C3COC3)CC2)c(-c2cn(C)nc2F)cc1Nc1cc(N2OCC[C@@H]2c2cccc(F)c2F)ncn1 [Example 17, (R)-6-(3-(2,3-difluorophenyl)isoxazolidin-2-yl)-N-(5-(3-fluoro-1-methyl-1H-pyrazol-4-yl)-2-methoxy-4-(4-(oxetan-3-yl)piperidin-1-yl)phenyl)pyrimidin-4-amine]	100 to 1000 nM
COc1cc(N2CCN(C)CC2)c(-c2ccncc2)cc1Nc1cc(N2OCC[C@@H]2c2cccc(F)c2F)ncn1 [Example 79, (R)-6-(3-(2,3-difluorophenyl)isoxazolidin-2-yl)-N-(2-methoxy-4-(4-methylpiperazin-1-yl)-5-(pyridin-4-yl)phenyl)pyrimidin-4-amine]	100 to 1000 nM
COc1cc(N2CCN(C)CC2)c(-c2ccoc2)cc1Nc1cc(N2OCC[C@@H]2c2cccc(F)c2F)ncn1 [Example 75, (R)-6-(3-(2,3-difluorophenyl)isoxazolidin-2-yl)-N-(5-(furan-3-yl)-2-methoxy-4-(4-methylpiperazin-1-yl)phenyl)pyrimidin-4-amine]	100 to 1000 nM
COc1cc(N2CCC(N3CC(F)(F)C3)CC2)c(-c2cnn(C)c2)cc1Nc1cc(N2OCC[C@@H]2c2cccc(F)c2F)ncn1 [Example 55, (R)-N-(4-(4-(3,3-difluoroazetidin-1-yl)piperidin-1-yl)-2-methoxy-5-(1-methyl-1H-pyrazol-4-yl)phenyl)-6-(3-(2,3-difluorophenyl)isoxazolidin-2-yl)pyrimidin-4-amine]	< 100 nM
COc1cc(N2CC3(CCOCC3)C2)c(-c2cnn(C)c2)cc1Nc1cc(N2OCC[C@@H]2c2cccc(F)c2F)ncn1 [Example 111, (R)-6-(3-(2,3-difluorophenyl)isoxazolidin-2-yl)-N-(2-methoxy-5-(1-methyl-1H-pyrazol-4-yl)-4-(7-oxa-2-azaspiro[3.5]nonan-2-yl)phenyl)pyrimidin-4-amine]	100 to 1000 nM
COc1cc(N2CCC(CN(C)C(C)(C)CF)CC2)c(-c2cnn(C)c2)cc1Nc1cc(N2OCC[C@@H]2c2cccc(F)c2F)ncn1 [Example 110, (R)-6-(3-(2,3-difluorophenyl)isoxazolidin-2-yl)-N-(4-(4-(((1-fluoro-2-methylpropan-2-yl)(methyl)amino)methyl)pi-peridin-1-yl)-2-methoxy-5-(1-methyl-1H-pyrazol-4-yl)phenyl)pyrimidin-4-amine]	100 to 1000 nM
CN1CCN(c2c(-c3cnn(C)c3)cc(Nc3cc(N4OCC[C@@H]4c4cccc(F)c4F)ncn3)c3c2OCO3)CC1 [Example 113, (R)-6-(3-(2,3-difluorophenyl)isoxazolidin-2-yl)-N-(6-(1-methyl-1H-pyrazol-4-yl)-7-(4-methylpiperazin-1-yl)benzo[d][1,3]dioxol-4-yl)pyrimidin-4-amine]	< 100 nM
